# Measurements as given in ChEMBL document CHEMBL1201862, “PubChem BioAssay data set” (2004).
#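 Test compounds were applied to cells in 96-well plates for 48 hours at 5 doses. GI50: concentration for 50% inhibition of growth.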 Active and inactive are the calls of the source. No stated cut-off is given here; in the data, active = GI50 up to about 1.1 µM and inactive = higher.
# How the values were obtained:
# Test in all cases: NCI tumour cell line growth inhibition, 48 h
# SK-MEL-28 = tested on: SK-MEL-28
# RXF 393 = tested on: RXF 393
# ACHN = tested on: ACHN
# HCC 2998 = tested on: HCC 2998
# Malme-3M = tested on: Malme-3M
# A549 = tested on: A549
# NCI/ADR-RES = tested on: NCI/ADR-RES
# LOX IMVI = tested on: LOX IMVI
# NCI-H460 = tested on: NCI-H460
# OVCAR-8 = tested on: OVCAR-8
# CAKI-1 = tested on: CAKI-1
# SF-295 = tested on: SF-295
# UACC-62 = tested on: UACC-62
# SK-MEL-2 = tested on: SK-MEL-2
# NCI-H226 = tested on: NCI-H226
# Hs-578T = tested on: Hs-578T
# 786-0 = tested on: 786-0
# OVCAR-5 = tested on: OVCAR-5
# T47D = tested on: T47D
# HCT-116 = tested on: HCT-116
# OVCAR-4 = tested on: OVCAR-4
# UACC-257 = tested on: UACC-257
# MDA-N = tested on: MDA-N
# PC-3 = tested on: PC-3
# EKVX = tested on: EKVX
# HOP-62 = tested on: HOP-62
# DU-145 = tested on: DU-145
# NCI-H23 = tested on: NCI-H23
# KM12 = tested on: KM12
# SF-539 = tested on: SF-539
# RPMI-8226 = tested on: RPMI-8226
# SN12C = tested on: SN12C
# SK-MEL-5 = tested on: SK-MEL-5
# TK-10 = tested on: TK-10
# SK-OV-3 = tested on: SK-OV-3
# K562 = tested on: K562
# U-251 = tested on: U-251
# SW-620 = tested on: SW-620
# BT-549 = tested on: BT-549
# HT-29 = tested on: HT-29
# MDA-MB-231 = tested on: MDA-MB-231
# M14 = tested on: M14
# MOLT-4 = tested on: MOLT-4
# SNB-75 = tested on: SNB-75
# HL-60 = tested on: HL-60
# SNB-19 = tested on: SNB-19
# NCI-H522 = tested on: NCI-H522
# A498 = tested on: A498
# IGROV-1 = tested on: IGROV-1
# MCF7 = tested on: MCF7
# MDA-MB-435 = tested on: MDA-MB-435
# COLO 205 = tested on: COLO 205
# CCRF-CEM = tested on: CCRF-CEM
# HCT-15 = tested on: HCT-15
# HOP-92 = tested on: HOP-92
# SF-268 = tested on: SF-268
# SR = tested on: SR
# UO-31 = tested on: UO-31
# OVCAR-3 = tested on: OVCAR-3
compound,measurement,setting,value
O=N/N=c1\o[n-][n+](CCc2ccccc2)c1Cc1/c(=N/N=O)o[n-][n+]1CCc1ccccc1,GI50,SK-MEL-28,55.6 µM (inactive)
same,GI50,RXF 393,39.2 µM (inactive)
same,GI50,ACHN,31.4 µM (inactive)
same,GI50,HCC 2998,44.9 µM (inactive)
same,GI50,Malme-3M,24.2 µM (inactive)
same,GI50,A549,> 100 µM (inactive)
same,GI50,NCI/ADR-RES,> 100 µM (inactive)
same,GI50,LOX IMVI,91.4 µM (inactive)
same,GI50,NCI-H460,33.7 µM (inactive)
same,GI50,OVCAR-8,21.7 µM (inactive)
same,GI50,CAKI-1,> 100 µM (inactive)
same,GI50,SF-295,25.6 µM (inactive)
same,GI50,UACC-62,51.2 µM (inactive)
same,GI50,SK-MEL-2,29.6 µM (inactive)
same,GI50,NCI-H226,29.9 µM (inactive)
same,GI50,Hs-578T,28.7 µM (inactive)
same,GI50,786-0,20.2 µM (inactive)
same,GI50,OVCAR-5,> 100 µM (inactive)
same,GI50,T47D,27.9 µM (inactive)
same,GI50,HCT-116,50.1 µM (inactive)
same,GI50,OVCAR-4,16.8 µM (inactive)
same,GI50,UACC-257,> 100 µM (inactive)
same,GI50,MDA-N,80.9 µM (inactive)
same,GI50,PC-3,33.8 µM (inactive)
same,GI50,EKVX,50 µM (inactive)
same,GI50,HOP-62,23.2 µM (inactive)
same,GI50,DU-145,55.5 µM (inactive)
same,GI50,NCI-H23,28.4 µM (inactive)
same,GI50,KM12,78.2 µM (inactive)
same,GI50,SF-539,20.7 µM (inactive)
same,GI50,RPMI-8226,43.1 µM (inactive)
same,GI50,SN12C,34.5 µM (inactive)
same,GI50,SK-MEL-5,31.2 µM (inactive)
same,GI50,TK-10,25.2 µM (inactive)
same,GI50,SK-OV-3,34.4 µM (inactive)
same,GI50,K562,25.2 µM (inactive)
same,GI50,U-251,22.1 µM (inactive)
same,GI50,SW-620,89.7 µM (inactive)
same,GI50,BT-549,32.9 µM (inactive)
same,GI50,HT-29,76 µM (inactive)
same,GI50,MDA-MB-231,33.9 µM (inactive)
same,GI50,M14,89.5 µM (inactive)
same,GI50,MOLT-4,> 100 µM (inactive)
same,GI50,SNB-75,19 µM (inactive)
same,GI50,HL-60,30.8 µM (inactive)
same,GI50,SNB-19,28.2 µM (inactive)
same,GI50,NCI-H522,23.1 µM (inactive)
same,GI50,A498,46.8 µM (inactive)
same,GI50,IGROV-1,25.1 µM (inactive)
same,GI50,MCF7,70 µM (inactive)
same,GI50,MDA-MB-435,39.7 µM (inactive)
same,GI50,COLO 205,> 100 µM (inactive)
same,GI50,CCRF-CEM,> 100 µM (inactive)
same,GI50,HCT-15,> 100 µM
same,GI50,HOP-92,27.1 µM (inactive)
same,GI50,SF-268,32 µM (inactive)
same,GI50,SR,31.2 µM (inactive)
same,GI50,UO-31,> 100 µM (inactive)
same,GI50,OVCAR-3,18.7 µM (inactive)
COc1cc2c(c(OC)c1OC)C(=O)[C@H](Br)[C@H]2NC(=O)NCCCl,GI50,SK-MEL-28,> 100 µM (inactive)
same,GI50,RXF 393,97.1 µM (inactive)
same,GI50,ACHN,> 100 µM (inactive)
same,GI50,HCC 2998,> 100 µM (inactive)
same,GI50,Malme-3M,> 100 µM (inactive)
same,GI50,A549,79.6 µM (inactive)
same,GI50,NCI/ADR-RES,> 100 µM (inactive)
same,GI50,LOX IMVI,47.1 µM (inactive)
same,GI50,NCI-H460,80.4 µM (inactive)
same,GI50,OVCAR-8,> 100 µM (inactive)
same,GI50,CAKI-1,> 100 µM (inactive)
same,GI50,SF-295,> 100 µM (inactive)
same,GI50,UACC-62,73.3 µM (inactive)
same,GI50,SK-MEL-2,> 100 µM (inactive)
same,GI50,NCI-H226,88.5 µM (inactive)
same,GI50,Hs-578T,> 100 µM (inactive)
same,GI50,786-0,> 100 µM (inactive)
same,GI50,OVCAR-5,> 100 µM (inactive)
same,GI50,T47D,> 100 µM (inactive)
same,GI50,HCT-116,82.6 µM (inactive)
same,GI50,OVCAR-4,71 µM (inactive)
same,GI50,UACC-257,> 100 µM (inactive)
same,GI50,MDA-N,35.2 µM (inactive)
same,GI50,PC-3,> 100 µM (inactive)
same,GI50,EKVX,50.1 µM (inactive)
same,GI50,HOP-62,> 100 µM (inactive)
same,GI50,DU-145,> 100 µM (inactive)
same,GI50,NCI-H23,> 100 µM (inactive)
same,GI50,KM12,72.8 µM (inactive)
same,GI50,SF-539,> 100 µM (inactive)
same,GI50,RPMI-8226,> 100 µM (inactive)
same,GI50,SN12C,> 100 µM (inactive)
same,GI50,SK-MEL-5,37.2 µM (inactive)
same,GI50,TK-10,> 100 µM (inactive)
same,GI50,SK-OV-3,59 µM (inactive)
same,GI50,K562,58.2 µM (inactive)
same,GI50,U-251,51.1 µM (inactive)
same,GI50,SW-620,> 100 µM (inactive)
same,GI50,BT-549,38.6 µM (inactive)
same,GI50,HT-29,> 100 µM (inactive)
same,GI50,MDA-MB-231,> 100 µM (inactive)
same,GI50,M14,86.1 µM (inactive)
same,GI50,MOLT-4,46.7 µM (inactive)
same,GI50,SNB-75,> 100 µM (inactive)
same,GI50,HL-60,75.5 µM (inactive)
same,GI50,SNB-19,> 100 µM (inactive)
same,GI50,NCI-H522,> 100 µM (inactive)
same,GI50,A498,> 100 µM (inactive)
same,GI50,IGROV-1,68.1 µM (inactive)
same,GI50,MCF7,> 100 µM (inactive)
same,GI50,MDA-MB-435,40.5 µM (inactive)
same,GI50,COLO 205,50.8 µM (inactive)
same,GI50,CCRF-CEM,23.6 µM (inactive)
same,GI50,HCT-15,62.5 µM
same,GI50,HOP-92,> 100 µM (inactive)
same,GI50,SF-268,49.9 µM (inactive)
same,GI50,SR,76.2 µM (inactive)
same,GI50,UO-31,> 100 µM (inactive)
same,GI50,OVCAR-3,68.2 µM (inactive)
O=C(Oc1cc(=O)c(OC(=O)c2ccccc2)co1)c1ccccc1,GI50,SK-MEL-28,55.6 µM (inactive)
same,GI50,RXF 393,72.9 µM (inactive)
same,GI50,ACHN,> 100 µM (inactive)
same,GI50,HCC 2998,> 100 µM (inactive)
same,GI50,Malme-3M,25.3 µM (inactive)
same,GI50,A549,84.7 µM (inactive)
same,GI50,NCI/ADR-RES,83.2 µM (inactive)
same,GI50,LOX IMVI,36.9 µM (inactive)
same,GI50,NCI-H460,> 100 µM (inactive)
same,GI50,OVCAR-8,> 100 µM (inactive)
same,GI50,CAKI-1,> 100 µM (inactive)
same,GI50,SF-295,51.1 µM (inactive)
same,GI50,UACC-62,> 100 µM (inactive)
same,GI50,SK-MEL-2,> 100 µM (inactive)
same,GI50,NCI-H226,85.3 µM (inactive)
same,GI50,Hs-578T,93.8 µM (inactive)
same,GI50,786-0,49.4 µM (inactive)
same,GI50,OVCAR-5,> 100 µM (inactive)
same,GI50,T47D,65.3 µM (inactive)
same,GI50,HCT-116,65 µM (inactive)
same,GI50,OVCAR-4,95.7 µM (inactive)
same,GI50,UACC-257,> 100 µM (inactive)
same,GI50,MDA-N,> 100 µM (inactive)
same,GI50,PC-3,91 µM (inactive)
same,GI50,HOP-62,80 µM (inactive)
same,GI50,DU-145,> 100 µM (inactive)
same,GI50,NCI-H23,> 100 µM (inactive)
same,GI50,KM12,> 100 µM (inactive)
same,GI50,SF-539,46.5 µM (inactive)
same,GI50,RPMI-8226,47.4 µM (inactive)
same,GI50,SN12C,45.8 µM (inactive)
same,GI50,SK-MEL-5,> 100 µM (inactive)
same,GI50,TK-10,> 100 µM (inactive)
same,GI50,SK-OV-3,> 100 µM (inactive)
same,GI50,U-251,64.9 µM (inactive)
same,GI50,SW-620,> 100 µM (inactive)
same,GI50,BT-549,> 100 µM (inactive)
same,GI50,HT-29,84.5 µM (inactive)
same,GI50,MDA-MB-231,> 100 µM (inactive)
same,GI50,M14,> 100 µM (inactive)
same,GI50,MOLT-4,33.3 µM (inactive)
same,GI50,SNB-75,45.6 µM (inactive)
same,GI50,HL-60,34.8 µM (inactive)
same,GI50,SNB-19,92.7 µM (inactive)
same,GI50,NCI-H522,26.9 µM (inactive)
same,GI50,A498,> 100 µM (inactive)
same,GI50,IGROV-1,> 100 µM (inactive)
same,GI50,MCF7,> 100 µM (inactive)
same,GI50,MDA-MB-435,> 100 µM (inactive)
same,GI50,COLO 205,> 100 µM (inactive)
same,GI50,HCT-15,42.6 µM
same,GI50,HOP-92,> 100 µM (inactive)
same,GI50,SF-268,90.4 µM (inactive)
same,GI50,SR,31.7 µM (inactive)
same,GI50,UO-31,> 100 µM (inactive)
same,GI50,OVCAR-3,> 100 µM (inactive)
